{"source": "patent US20250213501A1", "about": "“IMPROVING SEMEN QUALITY” (CEUTICS HEALTH GMBH, priority 2022, published 2025)", "origin": "cited, not measured here", "key": {"[1]": {"settings": "daily intake of 12 mg of spermidine provided in a plant extract (e.g., wheat germ extract)"}}, "data": [{"compound": "NCCCCNCCCN", "note": "[spermidine]", "values": [{"measurement": "NOAEL for a 70 kg person", "setting": "70 kg person", "result": 470, "unit": "mg/day"}, {"measurement": "NOAEL (No Observed Adverse Effect Level)", "setting": "Til et al., Food and Chemical Toxicology 1997", "result": 83, "unit": "mg/kg body weight/day"}, {"measurement": "safety of daily intake", "setting": "[1]", "result": "safe"}]}]}
